Results from patent US9604932B2 (priority 2013, dated 2017).

Legend:
[1] = Incubation of R-107 in rat plasma, relative concentrations by HPLC; type: in vitro ADME; conditions: R-107 4 mM in rat plasma, 37° C.
Experimental: In an in vitro study, 2,2,5,5-tetramethyl-3-(nitrooxymethyl)pyrrolidin-1-yl acetate (R-107) was incubated in mouse or rat plasma at 37° C. at a concentration of 4 mM, and the relative concentrations of this compound as well as of its corresponding hydroxylamine, (1-hydroxy-2,2,5,5-tetramethylpyrrolidin-3-yl) methyl nitrate (R-105), and 3-nitratomethyl-2,2,5,5-tetramethylpyrrolidinyloxy (R-100), were measured by HPLC.

[2] = Plasma pharmacokinetics in pig (release of R-100 from R-107), LCMS; type: in vivo; conditions: for concentration at 0.08 h: 0.08 hrs post dose; for concentration at 0.17 h: 0.17 hrs post dose; for concentration at 0.25 h: 0.25 hrs post dose; for concentration at 0.5 h: 0.5 hrs post dose; for concentration at 1 h: 1 hrs post dose; for concentration at -0.08 h: −0.08 hrs post dose
Experimental: In the following two experiments, the pharmacokinetic of releasing R-100 from R-107, via R-105 that is the reduced form of R-100, was studied in vivo according to the protocol described herein.
100 μl aliquots plasma obtained from R-107-treated sheep or pig were thawed and 200 μl ice-cold ethanol was added to each 100 μl sample to precipitate protein. Samples were then vortexed, placed on ice for 10 minutes, and then spun down at room temperature for 15 minutes. A first 100 μl supernatant from each spun sample was withdrawn and placed in a labeled HPLC micro vial to which 300 μl MPA (LC mobile phase A) was added, and the vial contents were then mixed and submitted for LCMS analysis (kept at 4° C.). The concentration of R-107 was measured in this sample as was the concentration of R105. A second 100 μl supernatant from each spun sample was added to a labelled HPLC micro vial to which 300 μl MPA and 2 μl of Reducing solution (ascorbic acid, 1.0 mg/ml in water) were added. These vials were vortexed; incubated at 50° C. for 1 hour with gentle shaking; and were then cooled to 4° C. and submitted for LCMS analysis. This sample was analyzed for R105, i.e., reduced form of R-100, and the amount measured thus represents the sum of R-100 and R-105 originally present in the plasma. The concentration of R-100 can be calculated from that of the R-105 in the second sample minus that of R-105 in the first sample. However, the concentrations of R-105 were seen to be low (approximately 10% or less of those of R-100) and so the results reported below as R-100 are not corrected for R-105.
Sets of standards (R-100, R-105 and R-107) were prepared by spiking individually in pig plasma. 100 μl aliquots of these spiked plasma samples, after thawing, were included in the above extraction protocol.
Analysis method were carried out with an Agilent HPLC stack, with column eluate directed, via a diverter valve, into the source of an AB Sciex ‘Qstar Elite’ Hybrid TOF, high-resolution mass spectrometer. LC column: Phenomenex Kinetex C18 2.6u 100A, 2.1×50 mm. LC mobile phase A: H2O with 0.02% trifluoroacetic acid (TFA), 0.1% formic acid (HOF); Phase B: acetonitrile (ACN) with 0.02% TFA, 0.1% HOF. Mobile phase flow rate=500 μl/min. Injection size: 8 μl, via Agilent 1100 u-WPS autosampler.

[3] = tested on: myocardial ischemia-reperfusion injury; assay: Rat model of myocardial ischemia-reperfusion injury; type: in vivo, Sprague-Dawley rats; conditions: protocol only; 10, 30, 80 mg/kg IV
Experimental: In order to test the efficacy of R-107 in a myocardial ischemia reperfusion injury, male aged Sprague-Dawley rats are dosed with R-107 (0, 10, 30, 80 mg/kg IV) 10 minutes prior to the end of a 30 minutes period of ischemia produced by occlusion of the left anterior descending (LAD) coronary artery. Cardiac function is monitored by a Millar catheter for the determination of heart rate (HR), systolic and diastolic blood pressure (BP), left ventricular (LV) systolic BP, LV end-diastolic BP (LVEDP), ±dP/dt, pressure-volume (PV) loop, and tau (τ). 3 hours post-ischemia, blood and myocardium are analyzed for morphologic, histochemical, and bioanalytical injury. The area of necrosis, as a % of area at risk (AAR), and the extent of the no-reflow zone are quantified.

[4] = IV R-107 diluted in 4 parts of PEG400, 18 mg/kg over 6 minutes, 24 hrs post dose
[5] = capsule per os of neat R-107 88 mg/kg, 24 hrs post dose
[6] = plasma, IV R-107 diluted in 4 parts of PEG400, 18 mg/kg over 6 minutes
[7] = plasma, IV neat R-107 88 mg/kg over 6 minutes
[8] = plasma, oral, capsule per os of neat R-107 88 mg/kg

Compound: CC(=O)ON1C(C)(C)CC(CO[N+](=O)[O-])C1(C)C (stereo not shown) [R-107, 2,2,5,5-tetramethyl-3-(nitrooxymethyl)pyrrolidin-1-yl acetate]
- Relative concentration of R-107 ([1]; 0.1 hrs): 246
- Relative concentration of R-107 ([1]; 1.5 hrs): 18
- Relative concentration of R-107 ([1]; 20 hrs): 0
- R-107 in plasma ([2]; IV R-107 diluted in 4 parts of PEG400, 18 mg/kg over 6 minutes, 2 hrs post dose): not detected
- R-107 in plasma ([2]; IV R-107 diluted in 4 parts of PEG400, 18 mg/kg over 6 minutes, 4 hrs post dose): not detected
- R-107 in plasma ([2]; IV R-107 diluted in 4 parts of PEG400, 18 mg/kg over 6 minutes, 8 hrs post dose): not detected
- R-100 in plasma [2, 4]: not detected
- R-107 in plasma [2, 4]: not detected
- R-107 in plasma ([2]; IV neat R-107 88 mg/kg over 6 minutes, 6 hrs post dose): not detected
- R-107 in plasma ([2]; IV neat R-107 88 mg/kg over 6 minutes, 24 hrs post dose): not detected
- R-107 in plasma ([2]; capsule per os of neat R-107 88 mg/kg, 8 hrs post dose): not detected
- R-100 in plasma [2, 5]: not detected
- R-107 in plasma [2, 5]: not detected
- concentration at 0.08 h [2, 6]: 2380 ng/mL
- concentration at 0.17 h [2, 6]: 640 ng/mL
- concentration at 0.25 h [2, 6]: 430 ng/mL
- concentration at 0.5 h [2, 6]: 250 ng/mL
- concentration at 1 h [2, 6]: 220 ng/mL
- concentration at -0.08 h [2, 6]: 0 ng/mL
- concentration at 0.08 h [2, 7]: 5240 ng/mL
- concentration at 0.17 h [2, 7]: 5870 ng/mL
- concentration at 0.25 h [2, 7]: 3430 ng/mL
- concentration at 0.5 h [2, 7]: 1320 ng/mL
- concentration at 1 h [2, 7]: 360 ng/mL
- concentration at 2 h ([2]; plasma, IV neat R-107 88 mg/kg over 6 minutes, 2 hrs post dose): 260 ng/mL
- concentration at -0.08 h [2, 7]: 0 ng/mL
- concentration at 0.08 h [2, 8]: 1.32 ng/mL
- concentration at 0.17 h [2, 8]: 0.715 ng/mL
- concentration at 0.5 h [2, 8]: 0.345 ng/mL
- concentration at 1 h [2, 8]: 0.11 ng/mL
- concentration at 2 h ([2]; plasma, oral, capsule per os of neat R-107 88 mg/kg, 2 hrs post dose): 0.222 ng/mL
- concentration at 3 h ([2]; plasma, oral, capsule per os of neat R-107 88 mg/kg, 3 hrs post dose): 0.11 ng/mL
- concentration at 4 h ([2]; plasma, oral, capsule per os of neat R-107 88 mg/kg, 4 hrs post dose): 0.122 ng/mL
- Efficacy in rat model of myocardial ischemia-reperfusion injury [3]: Effective
